Legend:
MV-4-11 and HL-60 cells [1] = test: Quantitative real time PCR (qPCR) of CDKN1A, CDKN1C, GATA2, HES1; format: cell-based, human; conditions: MV-4-11 and HL-60, 48 hours
Protocol: RNA isolations were performed on a Qiacube (Qiagen) using the RNeasy Micro Kit (Qiagen) according to manufacturer’s protocol. RNA was converted to cDNA using the High Capacity RNA-to-cDNA Kit (Life Technologies) and qPCR performed using the Taqman Gene Expression Max Mix according to manufacturer’s protocol (Applied Bioscience). The following ThermoFisher taqman probes were used: GATA2 (Hs01060665_g1), GAPDH (Hs0275899_g1), ACTB (Hs00231119_m1), CDKN1A (Hs00355782_m1), CDKN1C (Hs00175938_m1), HES1 (Hs00172878_m1).

Kasumi-1 cells = test: Cell viability assay (CellTiter-Glo); conditions: read-out: IC50 cell viability Kasumi-1; 72 hours
Protocol: (§4) MV-4-11, Kasumi-1, and HL-60 AML cell lines were all obtained from ATCC. MOLM-13 and NB-4 cell lines were obtained from DSMZ. […] The identity of each cell line was validated and documented by the suppliers. All experiments were performed with cells maintained at low passage numbers.
(§5) Compounds and/or solvent dimethyl sulfoxide (DMSO) were added at the same time using an HP D300 digital dispenser (Hewlett Packard) in triplicate or quadruplicate and incubated for 72 hours at 37°C. Viability was measured by adding 25 μL CellTiter-Glo (Promega), incubating for 10 minutes, and measuring luminescence on a SpectraMax (Molecular Devices). […] CI < 1 indicates synergism, CI = 1 indicates additivity, and CI > 1 indicates antagonism.

[2] = test system: MV-4-11, Kasumi-1 and HL-60 cell lines; test: Histone acetylation by immunoblotting; format: cell-based, human; conditions: 24 hours, increasing doses
Source text: The EpiQuick Total Histone Extraction kit (Epigentek) was used to isolate histones. Histone lysates were size separated on Bolt 10% Bis-Tris gradient gels (Life Technologies), transferred to polyvinylidene difluoride membranes, blocked in 5% BSA, and detected using standard western blotting techniques.

MV-4-11 and HL-60 cells [3] = test: Flow cytometry, cell cycle (EdU, S phase); format: cell-based, human; conditions: single agent, 72 hours
Protocol: All compounds and/or solvent DMSO were added concurrently at the indicated doses. Flow cytometry was performed to measure surface level of CD11b, cell cycle distribution, and induction of apoptosis. CD11b and apoptosis were analyzed on a FC500 flow cytometer ([…]) and cell cycle profiled on an Attune NxT (Life Technologies).
EdU labeled cells were then mixed with FxCycle Far Red Stain (Life Technologies) and 100 μg RNase A cocktail (Life technologies) for 30 minutes before flow cytometry analysis. Edu positive populations representing S phase cells were quantified.

NB-4 cells = test: Cell viability assay (CellTiter-Glo); conditions: read-out: IC50 cell viability NB-4; 72 hours
Protocol: as §4
Compounds and/or solvent dimethyl sulfoxide (DMSO) were added at the same time using an HP D300 digital dispenser (Hewlett Packard) in triplicate or quadruplicate and incubated for 72 hours at 37°C. Viability was measured by adding 25 μL CellTiter-Glo (Promega), incubating for 10 minutes, and measuring luminescence on a SpectraMax (Molecular Devices).

HDAC5 = biological target: T1, HDAC5 (Homo sapiens, UniProt Q9UQL6); test: HDAC enzyme assay, in vitro biochemical; conditions: maximum concentration tested of 20 μM
T1 construct: purchased BPS Biosciences
Protocol: (§1) In vitro biochemical assays were performed as described previously. Specifically, compounds were dissolved and diluted in assay buffer (50 mM HEPES, pH 7.4, 100 mM KCl, 0.001% Tween-20, 0.05% BSA, and 20 μM Tris (2-carboxyethyl) phosphine) to 6-fold the final concentration. […] The amount of substrate (acetyl-lysine tripeptide) used for each enzyme was equal to the Michaelis constant (Km), as determined by a titration curve. Substrate was diluted in assay buffer to 6-fold of the final concentration with 0.3 μM sequencing grade trypsin (Sigma-Aldrich). The substrate/trypsin mix was added to the enzyme/compound mix and the plate was shaken for 5 seconds and then placed into a SpectraMax M5 microtiter (Molecular Devices) plate reader. The enzymatic reaction was monitored over 30 minutes for release of […] after deacetylation of the lysine side chain in the peptide substrate, and the linear rate of the reaction was calculated.
(§2) biochemical assay for HDAC4, HDAC5, HDAC6, HDAC7, HDAC8, HDAC9 inhibition by ACY-1035.
(§3) (1 picture or pasted object on this page, not shown here)

HDAC4 = biological target: T2, HDAC4 (Homo sapiens, UniProt P56524); test: HDAC enzyme assay, in vitro biochemical; conditions: maximum concentration tested of 20 μM
T2 construct: purchased BPS Biosciences
Protocol: as §1, §2, §3

HDAC7 = biological target: T3, HDAC7 (Homo sapiens, UniProt Q8WUI4); test: HDAC enzyme assay, in vitro biochemical; conditions: maximum concentration tested of 20 μM
T3 construct: purchased BPS Biosciences
T3 sequence (Q8WUI4 1-952): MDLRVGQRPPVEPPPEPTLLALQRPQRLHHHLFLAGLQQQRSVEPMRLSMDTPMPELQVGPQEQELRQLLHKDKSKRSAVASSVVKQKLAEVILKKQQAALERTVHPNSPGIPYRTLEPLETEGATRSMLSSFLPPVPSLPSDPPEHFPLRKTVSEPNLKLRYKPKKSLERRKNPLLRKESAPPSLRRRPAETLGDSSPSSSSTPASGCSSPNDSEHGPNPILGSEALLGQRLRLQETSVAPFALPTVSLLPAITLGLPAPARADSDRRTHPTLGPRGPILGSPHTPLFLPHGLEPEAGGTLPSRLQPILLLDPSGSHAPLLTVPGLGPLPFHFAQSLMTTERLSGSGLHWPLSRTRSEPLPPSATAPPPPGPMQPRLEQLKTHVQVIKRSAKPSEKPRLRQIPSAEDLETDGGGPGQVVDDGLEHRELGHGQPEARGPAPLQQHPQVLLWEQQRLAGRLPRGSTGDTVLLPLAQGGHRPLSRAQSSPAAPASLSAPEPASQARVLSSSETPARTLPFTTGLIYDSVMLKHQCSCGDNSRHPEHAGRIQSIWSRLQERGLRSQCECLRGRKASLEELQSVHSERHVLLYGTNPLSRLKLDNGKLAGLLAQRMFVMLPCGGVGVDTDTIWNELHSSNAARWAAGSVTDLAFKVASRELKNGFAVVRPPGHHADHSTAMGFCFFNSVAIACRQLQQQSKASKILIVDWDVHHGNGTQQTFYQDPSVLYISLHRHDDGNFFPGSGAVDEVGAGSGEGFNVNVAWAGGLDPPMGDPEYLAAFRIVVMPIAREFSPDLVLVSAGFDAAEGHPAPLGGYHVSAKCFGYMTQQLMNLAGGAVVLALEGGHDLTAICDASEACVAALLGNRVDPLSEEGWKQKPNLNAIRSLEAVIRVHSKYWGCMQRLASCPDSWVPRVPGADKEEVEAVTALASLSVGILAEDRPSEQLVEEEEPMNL
Protocol: as §1, §2, §3

HL-60 cells = test: Cell viability assay (CellTiter-Glo); conditions: read-out: IC50 cell viability HL-60; 72 hours
Protocol: as §4, §5

MOLM-13 cells = test: Cell viability assay (CellTiter-Glo), single agent and combination; conditions: read-out: IC50 cell viability MOLM-13; 72 hours
Protocol: as §4, §5

T2 sequence (P56524 whole entry): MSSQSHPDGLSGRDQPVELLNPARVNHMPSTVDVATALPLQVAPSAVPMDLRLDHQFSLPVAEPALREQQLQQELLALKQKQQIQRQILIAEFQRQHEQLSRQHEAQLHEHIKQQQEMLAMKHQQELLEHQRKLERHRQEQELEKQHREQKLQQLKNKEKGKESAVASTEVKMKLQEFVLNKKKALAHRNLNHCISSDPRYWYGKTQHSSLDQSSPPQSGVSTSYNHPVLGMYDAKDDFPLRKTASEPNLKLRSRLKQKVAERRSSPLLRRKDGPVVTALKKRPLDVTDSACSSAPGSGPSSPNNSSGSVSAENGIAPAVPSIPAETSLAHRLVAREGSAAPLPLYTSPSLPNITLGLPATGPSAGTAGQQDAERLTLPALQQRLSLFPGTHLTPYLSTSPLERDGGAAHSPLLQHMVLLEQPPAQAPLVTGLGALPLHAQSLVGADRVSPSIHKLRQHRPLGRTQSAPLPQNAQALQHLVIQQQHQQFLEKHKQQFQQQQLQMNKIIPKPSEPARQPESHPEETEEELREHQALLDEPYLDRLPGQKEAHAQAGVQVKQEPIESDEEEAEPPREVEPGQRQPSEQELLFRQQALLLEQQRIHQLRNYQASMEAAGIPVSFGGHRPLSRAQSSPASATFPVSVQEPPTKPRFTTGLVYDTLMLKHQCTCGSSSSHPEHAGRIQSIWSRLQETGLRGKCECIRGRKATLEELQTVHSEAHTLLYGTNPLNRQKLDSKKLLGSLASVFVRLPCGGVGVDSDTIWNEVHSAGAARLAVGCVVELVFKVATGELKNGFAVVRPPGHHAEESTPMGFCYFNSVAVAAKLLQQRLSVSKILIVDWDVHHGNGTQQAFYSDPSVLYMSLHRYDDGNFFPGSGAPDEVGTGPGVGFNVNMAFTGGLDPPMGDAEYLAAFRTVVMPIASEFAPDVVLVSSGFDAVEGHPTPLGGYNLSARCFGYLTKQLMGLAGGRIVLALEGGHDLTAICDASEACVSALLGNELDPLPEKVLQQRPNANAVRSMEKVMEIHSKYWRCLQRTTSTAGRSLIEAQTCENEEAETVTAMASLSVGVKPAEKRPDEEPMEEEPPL
T1 sequence (Q9UQL6 whole entry): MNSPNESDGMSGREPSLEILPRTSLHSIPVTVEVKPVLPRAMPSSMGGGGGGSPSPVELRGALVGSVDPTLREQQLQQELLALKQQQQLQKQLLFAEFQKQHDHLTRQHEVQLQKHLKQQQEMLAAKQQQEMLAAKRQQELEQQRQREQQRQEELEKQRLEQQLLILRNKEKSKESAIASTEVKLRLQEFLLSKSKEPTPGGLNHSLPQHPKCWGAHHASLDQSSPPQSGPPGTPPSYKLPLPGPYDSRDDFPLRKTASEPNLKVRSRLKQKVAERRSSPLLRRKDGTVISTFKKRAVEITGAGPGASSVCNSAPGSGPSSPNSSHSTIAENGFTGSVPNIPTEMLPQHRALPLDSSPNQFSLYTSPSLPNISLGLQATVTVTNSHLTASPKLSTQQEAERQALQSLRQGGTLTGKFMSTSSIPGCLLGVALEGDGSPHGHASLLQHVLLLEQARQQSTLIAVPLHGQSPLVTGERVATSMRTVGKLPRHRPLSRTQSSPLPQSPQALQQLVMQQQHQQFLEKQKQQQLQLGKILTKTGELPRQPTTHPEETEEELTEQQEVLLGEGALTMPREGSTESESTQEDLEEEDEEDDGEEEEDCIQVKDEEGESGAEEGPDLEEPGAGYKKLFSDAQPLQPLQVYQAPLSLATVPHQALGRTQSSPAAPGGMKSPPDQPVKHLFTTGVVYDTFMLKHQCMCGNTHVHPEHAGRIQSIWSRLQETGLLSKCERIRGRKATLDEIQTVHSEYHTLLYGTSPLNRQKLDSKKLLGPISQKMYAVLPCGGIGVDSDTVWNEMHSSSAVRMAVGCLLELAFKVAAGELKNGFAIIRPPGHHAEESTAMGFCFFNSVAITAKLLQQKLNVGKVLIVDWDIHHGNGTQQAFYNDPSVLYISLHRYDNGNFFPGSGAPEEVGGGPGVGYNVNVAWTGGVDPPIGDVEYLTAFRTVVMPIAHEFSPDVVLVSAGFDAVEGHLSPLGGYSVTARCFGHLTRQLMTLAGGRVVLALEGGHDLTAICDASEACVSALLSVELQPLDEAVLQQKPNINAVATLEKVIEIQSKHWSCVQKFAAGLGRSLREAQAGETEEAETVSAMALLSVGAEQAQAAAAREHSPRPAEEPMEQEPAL

Row | SMILES | expression of CDKN1A, CDKN1C, GATA2 and HES1 (qPCR) (MV-4-11 and HL-60 cells [1]) | IC50 (Kasumi-1 cells) [nM] | acetylation on histone H2B lysine 5 (H2BK5ac) and histone H3 lysine 56 (H3K56ac) [2] | cells in S phase (MV-4-11 and HL-60 cells [3]) | IC50 (NB-4 cells) [nM] | inhibition of HDAC5 (HDAC5) | inhibition of HDAC4 (HDAC4) | inhibition of HDAC7 (HDAC7) | IC50 (HL-60 cells) [nM] | IC50 (MOLM-13 cells) [nM]
1 | Nc1ncn([C@@H]2O[C@H](CO)[C@@H](O)[C@H]2O)c(=O)n1 [azacitidine] | up-regulated |  |  |  |  |  |  |  |  | 
2 | Nc1ccc(-c2cccs2)cc1NC(=O)c1ccc2c(c1)cc(C1CC1)n2CCN1CCOCC1 [ACY-1035] | up-regulated | 2600 | dose-dependent accumulation | dose-dependent reduction of cells in S phase | 2800 | did not inhibit | did not inhibit | did not inhibit | 3300 | 2900
